Data as given in paper PMC8121951, “Structure-based engineering of substrate specificity for pinoresinol-lariciresinol reductases” (Nature Communications, 2021).

Tests used:
AtPrR2 [1] = biological target: T1, AtPrR2 (Arabidopsis thaliana, UniProt Q9SVP6, N98S); test: LC-MS product conversion; format: biochemical; details: NADPH 150 μM, Tris-HCl pH 7.0, 30 °C, 30 min
T1 construct: gene PRR2; full-length, pET-duet-1, E. coli Rosetta (DE3), Ni-NTA and Superdex-200; homodimer
T1 sequence (Q9SVP6 1-317 N98S): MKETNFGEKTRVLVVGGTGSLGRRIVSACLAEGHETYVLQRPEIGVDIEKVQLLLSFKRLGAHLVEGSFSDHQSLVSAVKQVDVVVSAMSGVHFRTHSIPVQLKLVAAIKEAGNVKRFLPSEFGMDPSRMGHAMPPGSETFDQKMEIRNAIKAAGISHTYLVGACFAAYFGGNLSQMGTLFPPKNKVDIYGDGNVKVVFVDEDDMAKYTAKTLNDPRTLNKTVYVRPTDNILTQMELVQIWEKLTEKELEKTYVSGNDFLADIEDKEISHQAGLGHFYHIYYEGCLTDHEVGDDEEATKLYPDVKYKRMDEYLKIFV

IiPLR1 = biological target: T2, IiPLR1 (Isatis tinctoria, UniProt I6LRS1); test: X-ray crystal structure, co-crystal; format: binding; details: wild type
T2 construct: full-length, pET-duet-1, E. coli Rosetta (DE3), Ni-NTA and Superdex-200; homodimer
T2 sequence (I6LRS1 1-317): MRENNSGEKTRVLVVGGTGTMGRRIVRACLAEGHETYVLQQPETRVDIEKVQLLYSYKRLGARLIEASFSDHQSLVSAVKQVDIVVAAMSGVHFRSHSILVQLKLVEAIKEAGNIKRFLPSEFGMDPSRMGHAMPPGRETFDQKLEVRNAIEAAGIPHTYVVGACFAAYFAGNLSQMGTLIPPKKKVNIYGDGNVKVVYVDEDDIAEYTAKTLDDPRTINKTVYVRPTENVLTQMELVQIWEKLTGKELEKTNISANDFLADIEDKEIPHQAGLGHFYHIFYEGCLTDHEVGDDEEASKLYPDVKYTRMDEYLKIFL

AtPrR1 = biological target: T3, AtPrR1 (Arabidopsis thaliana, UniProt Q9FVQ6); test: X-ray crystal structure, co-crystal; format: binding; details: wild type
T3 construct: gene PRR1; full-length, pET-duet-1, E. coli Rosetta (DE3), Ni-NTA and Superdex-200; homodimer
T3 sequence (Q9FVQ6 1-317): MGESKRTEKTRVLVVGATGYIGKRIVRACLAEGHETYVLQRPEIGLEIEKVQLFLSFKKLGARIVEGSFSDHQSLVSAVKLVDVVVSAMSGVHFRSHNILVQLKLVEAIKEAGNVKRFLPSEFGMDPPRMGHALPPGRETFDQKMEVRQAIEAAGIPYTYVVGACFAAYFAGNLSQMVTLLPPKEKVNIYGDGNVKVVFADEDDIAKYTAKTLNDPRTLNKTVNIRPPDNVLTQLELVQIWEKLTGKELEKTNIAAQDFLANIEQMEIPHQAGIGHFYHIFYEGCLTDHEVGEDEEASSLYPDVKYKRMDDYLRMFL

[2] = biological target: Isatis indigotica pinoresinol-lariciresinol reductase 1 (Isatis indigotica); test: crystal structure; sitting-drop vapour diffusion at 20 or 4 °C, protein 5-10 mg/mL; apo, with NADP+ (1:5) or with NADP+ and substrate/product (1:5:10); homodimer seen in the crystal
AtPrR2 [3] = biological target: T4, AtPrR2 (Arabidopsis thaliana, UniProt Q9SVP6); test: X-ray crystal structure, co-crystal; format: binding; details: wild type, 1.6 Å
T4 construct: gene PRR2; full-length, pET-duet-1, E. coli Rosetta (DE3), Ni-NTA and Superdex-200; homodimer
T4 sequence (Q9SVP6 1-317): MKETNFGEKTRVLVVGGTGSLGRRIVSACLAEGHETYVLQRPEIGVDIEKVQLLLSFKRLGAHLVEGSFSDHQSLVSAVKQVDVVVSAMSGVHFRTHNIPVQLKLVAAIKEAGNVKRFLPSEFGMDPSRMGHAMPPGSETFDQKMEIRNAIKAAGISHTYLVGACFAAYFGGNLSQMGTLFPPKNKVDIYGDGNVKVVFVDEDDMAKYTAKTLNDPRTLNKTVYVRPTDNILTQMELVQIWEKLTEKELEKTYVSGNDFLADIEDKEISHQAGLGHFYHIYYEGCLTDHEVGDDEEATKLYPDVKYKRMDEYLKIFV

[4] = substrate: COc1cc(C2OCC3C(c4ccc(O)c(OC)c4)OCC23)ccc1O; test: LC-MS substrate consumption, Lineweaver-Burk; format: biochemical, Isatis tinctoria; details: NADPH 150 μM, 50 mM Tris-HCl pH 7.0, 10% glycerol, 30 °C, racemic substrate
Excerpt: (§1) LC-MS substrate consumption, Lineweaver-Burk on IiPLR1

[5] = substrate: COc1cc(CC2COC(c3ccc(O)c(OC)c3)C2CO)ccc1O; test: LC-MS substrate consumption, Lineweaver-Burk; format: biochemical, Isatis tinctoria; details: NADPH 150 μM, 50 mM Tris-HCl pH 7.0, 10% glycerol, 30 °C, racemic substrate
Excerpt: as §1

[6] = biological target: the molecule itself; test: crystal structure; sitting-drop vapour diffusion at 20 or 4 °C, protein 5-10 mg/mL; apo, with NADP+ (1:5) or with NADP+ and substrate/product (1:5:10); homodimer seen in the crystal

COc1cc(C[C@H]2CO[C@H](c3ccc(O)c(OC)c3)[C@H]2CO)ccc1O [lariciresinol]
LC-MS product conversion (AtPrR2 [1]): AtPrR2 mutant N98S could utilize lariciresinol to produce secoisolariciresinol

COc1cc(C[C@@H]2CO[C@@H](c3ccc(O)c(OC)c3)[C@@H]2CO)ccc1O [-LAR, (−)-lariciresinol]
X-ray crystal structure, co-crystal (IiPLR1; with NADP+, 2.2 Å): 7CS6 (IiPLR1 with NADP^+ and (−)lariciresinol) | X-ray crystal structure, co-crystal (AtPrR1; with NADP+, 2.5 Å): 7CSE (AtPrR1 with NADP^+ and (−)lariciresinol)

Isatis indigotica pinoresinol-lariciresinol reductase 1 (enzyme)
stoichiometry N [2]: 2

COc1cc([C@H]2OC[C@H]3[C@@H]2CO[C@@H]3c2ccc(O)c(OC)c2)ccc1O [+PIN, (+)-pinoresinol]
X-ray crystal structure, co-crystal (AtPrR2 [3]; with NADP+): 7CSH (AtPrR2 with NADP^+ and (+)pinoresinol) | X-ray crystal structure, co-crystal (IiPLR1; with NADP+, 2.3 Å): 7CS4 (IiPLR1 with NADP^+ and (+)pinoresinol) | X-ray crystal structure, co-crystal (AtPrR1; with NADP+, 2.0 Å): 7CSB (AtPrR1 with NADP^+ and (+)pinoresinol)

COc1cc(C[C@H]2CO[C@H](c3ccc(O)c(OC)c3)[C@H]2CO)ccc1O [+LAR, (+)-lariciresinol]
X-ray crystal structure, co-crystal (AtPrR1; with NADP+, 1.8 Å): 7CSD (AtPrR1 with NADP^+ and (+)lariciresinol)

COc1cc([C@@H]2OC[C@@H]3[C@H]2CO[C@H]3c2ccc(O)c(OC)c2)ccc1O [-PIN, (−)-pinoresinol]
X-ray crystal structure, co-crystal (IiPLR1; with NADP+, 2.1 Å): 7CS5 (IiPLR1 with NADP^+ and (−)pinoresinol) | X-ray crystal structure, co-crystal (AtPrR1; with NADP+, 2.5 Å): 7CSC (AtPrR1 with NADP^+ and (−)pinoresinol)

COc1cc(C[C@@H](CO)[C@H](CO)Cc2ccc(O)c(OC)c2)ccc1O [-SEC, (−)-secoisolariciresinol]
X-ray crystal structure, co-crystal (IiPLR1; with NADP+, 2.6 Å): 7CS8 (IiPLR1 with NADP^+ and (−)secoisolariciresinol) | X-ray crystal structure, co-crystal (AtPrR1; with NADP+, 2.0 Å): 7CSF (AtPrR1 with NADP^+ and (−)secoisolariciresinol)

NC(=O)c1ccc[n+]([C@@H]2O[C@H](COP(=O)(O)OP(=O)(O)OC[C@H]3O[C@@H](n4cnc5c(N)ncnc54)[C@H](OP(=O)(O)O)[C@@H]3O)[C@@H](O)[C@H]2O)c1 [NAP, NADP^+]
X-ray crystal structure, co-crystal (AtPrR2 [3]; with (+)-pinoresinol): 7CSH (AtPrR2 with NADP^+ and (+)pinoresinol) | X-ray crystal structure, co-crystal (IiPLR1; 2.4 Å): 7CS3 (IiPLR1 with NADP^+) | X-ray crystal structure, co-crystal (AtPrR1; 2.0 Å): 7CSA (AtPrR1 with NADP^+)

COc1cc(C[C@H](CO)[C@@H](CO)Cc2ccc(O)c(OC)c2)ccc1O [+SEC, (+)-secoisolariciresinol]
X-ray crystal structure, co-crystal (IiPLR1; with NADP+, 2.3 Å): 7CS7 (IiPLR1 with NADP^+ and (+)secoisolariciresinol)

B1: IiPLR1 (Isatis tinctoria; V46A) (protein)
chain: MRENNSGEKTRVLVVGGTGTMGRRIVRACLAEGHETYVLQQPETRADIEKVQLLYSYKRLGARLIEASFSDHQSLVSAVKQVDIVVAAMSGVHFRSHSILVQLKLVEAIKEAGNIKRFLPSEFGMDPSRMGHAMPPGRETFDQKLEVRNAIEAAGIPHTYVVGACFAAYFAGNLSQMGTLIPPKKKVNIYGDGNVKVVYVDEDDIAEYTAKTLDDPRTINKTVYVRPTENVLTQMELVQIWEKLTGKELEKTNISANDFLADIEDKEIPHQAGLGHFYHIFYEGCLTDHEVGDDEEASKLYPDVKYTRMDEYLKIFL
notes: full-length, pET-duet-1, E. coli Rosetta (DE3), Ni-NTA and Superdex-200; homodimer
Km [4]: 29.4 ± 1.62 µM | Vmax [4]: 3.22 µM/min | kcat [4]: 1.91 ± 0.402 s⁻¹ | kcat/Km [4]: 64700 ± 10800 M⁻¹ s⁻¹ | Km [5]: 26.5 ± 0.60 µM | Vmax [5]: 0.023 µM/min | kcat [5]: 0.0135 ± 0.00075 s⁻¹ | kcat/Km [5]: 517 ± 33.3 M⁻¹ s⁻¹

B2: Arabidopsis thaliana pinoresinol reductase 2 (enzyme, UniProt Q9SVP6 1-317, looked up)
chain: MKETNFGEKTRVLVVGGTGSLGRRIVSACLAEGHETYVLQRPEIGVDIEKVQLLLSFKRLGAHLVEGSFSDHQSLVSAVKQVDVVVSAMSGVHFRTHNIPVQLKLVAAIKEAGNVKRFLPSEFGMDPSRMGHAMPPGSETFDQKMEIRNAIKAAGISHTYLVGACFAAYFGGNLSQMGTLFPPKNKVDIYGDGNVKVVFVDEDDMAKYTAKTLNDPRTLNKTVYVRPTDNILTQMELVQIWEKLTEKELEKTYVSGNDFLADIEDKEISHQAGLGHFYHIYYEGCLTDHEVGDDEEATKLYPDVKYKRMDEYLKIFV
notes: Head-to-tail homodimer in both crystal forms (apo); with NADP+ and (+)-pinoresinol); also called AtPrR2; PrR; source: E. coli Rosetta (DE3), purified (Ni-NTA, Superdex-200); not shown: His tag (inferred from the Ni-NTA purification)
stoichiometry N [6]: 2

B3: Arabidopsis thaliana pinoresinol reductase 1 (enzyme, UniProt Q9FVQ6 1-317, looked up)
chain: MGESKRTEKTRVLVVGATGYIGKRIVRACLAEGHETYVLQRPEIGLEIEKVQLFLSFKKLGARIVEGSFSDHQSLVSAVKLVDVVVSAMSGVHFRSHNILVQLKLVEAIKEAGNVKRFLPSEFGMDPPRMGHALPPGRETFDQKMEVRQAIEAAGIPYTYVVGACFAAYFAGNLSQMVTLLPPKEKVNIYGDGNVKVVFADEDDIAKYTAKTLNDPRTLNKTVNIRPPDNVLTQLELVQIWEKLTGKELEKTNIAAQDFLANIEQMEIPHQAGIGHFYHIFYEGCLTDHEVGEDEEASSLYPDVKYKRMDDYLRMFL
notes: Head-to-tail homodimer in all crystal forms; crystallised apo, with NADP+, or with NADP+ and substrate/product; also called AtPrR1; PrR; source: E. coli Rosetta (DE3), purified (Ni-NTA, Superdex-200); not shown: His tag (inferred from the Ni-NTA purification)
stoichiometry N [6]: 2
